Results on 40 substances are retold here after patent US6892140B1, “Immunogenic cancer peptides and uses thereof” (Enteron, Inc., priority 2000, dated 2005).

Ends that are not written are not given here.

The subject of this assay is antibodies in sera from prostate cancer patients. As to the kind of experiment: Prostate cancer serum test of cell surface protein peptides (Table 3). Format: binding, human. The arrangement: key: +: positive or negative reactivity between peptides representing modified peptide regions of cancer cell surface protein molecules with antibodies in sera from prostate cancer patients; −: positive or negative reactivity between peptides representing modified peptide regions of cancer cell surface protein molecules with antibodies in sera from prostate cancer patients. Conditions: reactivity of peptide with antibodies in sera from prostate cancer patients. An excerpt:
Table 3 third column illustrates the positive or negative reactivity between peptides representing modified peptide regions of cancer cell surface protein molecules with antibodies in sera from prostate cancer patients. The presence or absence in prostate cancer cells of the 41 tested molecules is shown as + or − in column four.
Sixth, employing the immunoassays disclosed herein, each biotinylated peptide is screened as an antigen against sera or other relevant biological fluids containing antibodies taken from one of the following groups: cancer patients, patients with benign lesions or inflammatory conditions, and healthy subjects. Peptides can also be screened using tumor-infiltrating lymphocytes or peripheral blood-born lymphocytes from cancer patients. Candidate peptides we consider cancer-specific or cancer-associated depend on whether they fit the following definitions.
Take “heNct: Tested peptide of cell surface protein erbB-3 (HENCT; also: biotin label, end not given here)”: the “Prostate Cancer Serum Test Result” value is on record as “−”.
The value for “hkNqt: Tested peptide of cell surface protein ICAM 1 (HKNQT; also: biotin label, end not given here)” was “−”; that for “kNvtNrs: Tested peptide of cell surface protein integrin beta I (KNVTNRS; also: biotin label at one end)” was “−”.
As for “kaNts: Tested peptide of cell surface protein integrin alpha 5 (KANTS; also: biotin label at one end)”, the “Prostate Cancer Serum Test Result” value is on record as “−”.
Consider “kaNtt: Tested peptide of cell surface protein integrin alpha (v) (KANTT; also: biotin label at one end)”, for which the “Prostate Cancer Serum Test Result” value was “−”.
The value for “kdNrt: Tested peptide of cell surface protein pdgfr beta (KDNRT; also: biotin label at one end)” was “−”; that for “keNdt: Tested peptide of cell surface protein protein-tyrosine phosphatase kappa (KENDT; also: biotin label at one end)” was “−”; that for “kiNat: Tested peptide of cell surface protein desmoglein 2 (KINAT; also: biotin label at one end)” was “−”.
For the substance “knNht: Tested peptide of cell surface protein CD63 (KNNHT; also: biotin label at one end)”, the “Prostate Cancer Serum Test Result” value is on record as “−”.
For the substance “leNht: Tested peptide of cell surface protein integrin alpha 3 (LENHT; also: biotin label at one end)”, the “Prostate Cancer Serum Test Result” value is “−”.
As for “mNtt: Tested peptide of cell surface protein insulin-like gf receptor”, the entry is “−”.
With “meNkt: Tested peptide of cell surface protein integrin alpha 3 (MENKT; also: biotin label at one end)”, the “Prostate Cancer Serum Test Result” value is “+”.
“nkNvt: Tested peptide of cell surface protein integrin beta I (NKNVT; also: biotin label at one end)”: the “Prostate Cancer Serum Test Result” value is reported as “+”.
As for “nnNNss: Tested peptide of cell surface protein CD9 (NNNNSS; also: biotin label at one end)”, the entry is “−”; as for “pdNct: Tested peptide of cell surface protein erbB-4 (PDNCT; also: biotin label at one end)”, “−”; as for “pdNdt: Tested peptide of cell surface protein insulin-like gf receptor (PDNDT; also: biotin label at one end)”, “−”.
The value for “pdNqt: Tested peptide of cell surface protein integrin beta 5 (PDNQT; also: biotin label at one end)” was “−”.
The value for “perNrt: Tested peptide of cell surface protein erbB-1 (PERNRT; also: biotin label at one end, end not given here)” was “−”.
As to “pgNrt: Tested peptide of cell surface protein CD82 (PGNRT; also: biotin label at one end, end not given here)”, the “Prostate Cancer Serum Test Result” value is recorded as “−”.
The value for “qdNkt: Tested peptide of cell surface protein integrin alpha (v) (QDNKT; also: biotin label at one end, end not given here)” was “+”.
As for “qkNqt: Tested peptide of cell surface protein integrin alpha 9 (QKNQT; also: biotin label at one end, end not given here)”, the entry is “−”.
As for “qkNss: Tested peptide of cell surface protein integrin beta 6 (QKNSS; also: biotin label at one end, end not given here)”, the entry is “−”.
With “qrNit: Tested peptide of cell surface protein integrin alpha 1 (QRNIT; not fully specified)”, the “Prostate Cancer Serum Test Result” value is on record as “−”.
For “raNhs: Tested peptide of cell surface protein integrin alpha 6 (RANHS; not fully specified)”, the “Prostate Cancer Serum Test Result” value is “−”.
Turning to “rcNgs: Tested peptide of cell surface protein integrin beta 5 (RCNGS; not fully specified)”, the “Prostate Cancer Serum Test Result” value is “−”.
For the substance “rmNit: Tested peptide of cell surface protein integrin alpha 3 (RMNIT; not fully specified)”, the “Prostate Cancer Serum Test Result” value is “−”.
On to “saNrs: Tested peptide of cell surface protein CD66 (SANRS; not fully specified)”, for which the “Prostate Cancer Serum Test Result” value was “+”.
As for “sdNst: Tested peptide of cell surface protein CD53 (SDNST; not fully specified)”, the entry is “−”.
Consider “seNas: Tested peptide of cell surface protein integrin alpha 1 (SENAS; not fully specified)”, for which the “Prostate Cancer Serum Test Result” value is “−”.
As for “seNdt: Tested peptide of cell surface protein protein-tyrosine phosphatase PCP-2 (SENDT; not fully specified)”, the entry is “−”.
“skNfs: Tested peptide of cell surface protein integrin beta 3 (SKNFS; not fully specified)”: the “Prostate Cancer Serum Test Result” value was “−”.
For “skNqs: Tested peptide of cell surface protein CD66 (SKNQS; not fully specified)”, the “Prostate Cancer Serum Test Result” value is recorded as “−”.
As to “spNhs: Tested peptide of cell surface protein CD44 (SPNHS; not fully specified)”, the “Prostate Cancer Serum Test Result” value is reported as “−”.
With “teNqt: Tested peptide of cell surface protein integrin alpha (v) (TENQT; not fully specified)”, the “Prostate Cancer Serum Test Result” value was “−”.
As to “tkNgt: Tested peptide of cell surface protein desmoglein 1 (TKNGT; not fully specified)”, the “Prostate Cancer Serum Test Result” value is given as “−”.
As for “trNdt: Tested peptide of cell surface protein CD66 (TRNDT; not fully specified)”, the “Prostate Cancer Serum Test Result” value is “−”.
Turning to “trNvs: Tested peptide of cell surface protein pdgfr beta (TRNVS; not fully specified)”, the “Prostate Cancer Serum Test Result” value is “−”.
As for “vgNks: Tested peptide of cell surface protein hepatocyte gfr (VGNKS; not fully specified)”, the entry is “−”; as for “vkNst: Tested peptide of cell surface protein E-Cadherin (VKNST; not fully specified)”, “+”; as for “vtNrs: Tested peptide of cell surface protein integrin beta I (VTNRS; not fully specified)”, “−”.
